Source: patent US4504464A, “2,3-Dialkoxypropyl glyceryl ether and its preparation process as well as cosmetic composition containing same” (Kao Soap Co., Ltd., priority 1981, dated 1985)

What was measured:
Viscosity (27° C.) = assay type: physicochemical
Description: (§1) Physical and chemical properties of the compound prepared in Example 1, which compound relates to the present invention, and an example of its application for cosmetic compositions will be described below.
(§2) Viscosity Water-solubility (25° )

[1] = Water-solubility (25° C.); assay type: physicochemical; details: for Water-solubility (25° C.) 10%: 10% content of the diglycerin dialkyl ether; for Water-solubility (25° C.) 50%: 50% content of the diglycerin dialkyl ether
Description: as §1, §2
* Content (%) of the diglycerin dialkyl ether according to this invention
These figures will have the same significance in subsequent examples.

Compound	Viscosity (27° C.) (Viscosity (27° C.)) [cp]	Water-solubility (25° C.) 10% [1]	Water-solubility (25° C.) 50% [1]
2-butoxy-3-isostearoxypropyl glyceryl ether [Example 4]	240	–	–
CCCCCCCCCCCCOCC(COCC(O)CO)OC (stereo not shown) [Example 2, 2-methoxy-3-dodecyloxypropyl glyceryl ether]	504	Dissolved	–
2-octoxy-3-isostearoxypropyl glyceryl ether [Example 5]	280	Undissolved	Undissolved
CCCCCCCCOCC(COCC(O)CO)OC (stereo not shown) [Example 1, 2-methoxy-3-octoxypropyl glyceryl ether]	423	Dissolved	Dissolved
2-methoxy-3-isostearoxypropyl glyceryl ether [Example 3]	382	–	–
